Consider three compounds from publication PMC7930575, “Comparison of the Inhibitory Binding Modes Between the Planar Fascaplysin and Its Nonplanar Tetrahydro-β-carboline Analogs in CDK4” (Frontiers in Chemistry, 2021).

For one data set, the system named is A549. Description: MTT cytotoxicity assay, A549 cells, 48 h. The data set is classed as cell-based. The following applies: Homo sapiens, A549; MTT assay, 48 h, three independent experiments; read-out: Cytotoxicity (IC50, μM) A549. The method, then:
(§1) The cytotoxicity of the target compounds was evaluated via MTT assay; A549, HeLa, HepG2, and WI-38 were selected for the experiment; and the selected cell lines were purchased from Lanzhou Weihuan Biotechnology Development Co., Ltd. All cell lines were maintained in RPMI-1640 medium supplemented with 10% fetal calf serum under the environment of 5% CO2 concentration and 37°C. The incubated tumor cells were seeded in the prepared 96-well plates, respectively, to make them attach for 12 h. Afterward, the cells were processed with the synthesized compounds with different concentrations as well as fascaplysin as the reference group for 48 h. After 48 h, 10 μl of MTT solution (5 mg/ml in PBS) was added into each well and incubated for 4 h. Then, the medium was removed and 100 μl DMSO was added to dissolve the blue-colored formazan. The absorbance was detected at 570 nm by microplate reader to calculate the inhibition rate (%) and the IC50 was defined using GraphPad Prism Software (version 5.02) (shown in Table 1).

For a further data set, the system named is HeLa. Description: MTT cytotoxicity assay, HeLa cells, 48 h. The format is cell-based. The following applies: Homo sapiens, MTT assay, three independent experiments, read-out: Cytotoxicity (IC50, μM) HeLa. The method, then:
as §1

The subject of the next data set is HepG2. Description: MTT cytotoxicity assay, HepG2 cells, 48 h. Particulars: Homo sapiens, HepG2; MTT assay, 48 h, three independent experiments; read-out: Cytotoxicity (IC50, μM) HepG2. The data set is classed as cell-based. The method, then:
as §1

Data set [1] in a line: MTT cytotoxicity assay, normal cells WI-38, 48 h. The data set is classed as cell-based. The following applies: human, WI-38 cells (normal cell line); normal cell line, MTT assay, 48 h, three independent experiments; read-out: Cytotoxicity (IC50, μM) WI-38. The method, then: as §1
The target of the next data set is T1, CDK4/CycD3 (Homo sapiens, UniProt P11802).
T1 construct: purchased Cama
Kind of data set: CDK4 kinase inhibition assay (mobility shift assay). The format is biochemical. Particulars: mean of three independent experiments. Here is the method:
In this study, the inhibitory activities of the synthesized compounds against CDK4/CycD3 were also evaluated using mobility shift assay, and fascaplysin was used as the positive control compound. CDK4/CycD3 was from Cama, kinase substrate peptide was from GL, and fascaplysin was from Selleckchem. First, the kinase base buffer should be prepared (50.0 mmol/L HEPES, pH 7.5, 5 mM MgCl2, 1 mmol DTT, 0.0015% Brij-35). Second, 50 μg CDK4 kinase was added to the kinase base buffer to prepare the kinase solution. The kinase base buffer was used to prepare ATP and substrate peptide solutions, and the obtained solutions were mixed. Third, the synthesized compounds as well as the fascaplysin were diluted with DMSO to the desired concentrations. Fourth, the reaction mixture was incubated at 30°C for 40 min, and 25 μl stop buffer was added to stop the reaction. Finally, conversion was read by Caliper, and GraphPad Prism 5.0 was used to calculate the IC50 values of the compounds against enzyme bioactivities (Table 2).

T1 sequence (P11802 whole entry): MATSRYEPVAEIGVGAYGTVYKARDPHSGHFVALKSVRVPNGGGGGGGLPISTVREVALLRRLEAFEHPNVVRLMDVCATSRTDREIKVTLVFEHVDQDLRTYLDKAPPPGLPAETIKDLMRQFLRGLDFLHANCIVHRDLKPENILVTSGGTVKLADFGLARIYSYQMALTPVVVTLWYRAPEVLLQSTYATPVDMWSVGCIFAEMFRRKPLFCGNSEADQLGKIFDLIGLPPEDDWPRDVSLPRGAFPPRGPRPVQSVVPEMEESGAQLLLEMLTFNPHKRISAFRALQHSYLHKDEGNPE
T1 sequence (P30281 whole entry partner): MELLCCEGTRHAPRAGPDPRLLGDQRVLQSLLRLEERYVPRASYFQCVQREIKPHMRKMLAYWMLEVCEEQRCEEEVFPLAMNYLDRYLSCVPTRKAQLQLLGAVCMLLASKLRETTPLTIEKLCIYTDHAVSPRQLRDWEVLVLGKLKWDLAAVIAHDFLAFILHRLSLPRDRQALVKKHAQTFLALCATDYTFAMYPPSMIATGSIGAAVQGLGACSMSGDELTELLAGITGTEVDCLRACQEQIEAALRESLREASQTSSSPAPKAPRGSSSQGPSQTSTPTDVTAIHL

The compound `CCOC(=O)C1c2[nH]c3ccccc3c2CCN1C(=O)c1ccccc1` (stereo not drawn) [Compound 7e, Ethyl-2-benzoyl-2,3,4,9-tetrahydro-1H-pyrido [3,4-b] indole-1-carboxylate] yielded a melting point of 196.5 to 198.6 °C. Besides, the IC50 in the data set on A549 stood at 27.3 ± 6.5 µM. Further, in the data set on HeLa, the IC50 came out at 19.9 ± 2.45 µM. Further, the IC50 in the data set on HepG2 was 21.4 ± 1.69 µM. Moreover, the IC50 at 48 h in data set [1] came out at 99.8 ± 9.97 µM. In addition, at CDK4/CycD3, the IC50 came out at 29.7 µM.
In turn, `CCOC(=O)C1c2[nH]c3ccccc3c2CCN1C(=O)c1ccc(Cl)cc1` (stereo not drawn) [Compound 7g, Ethyl-2-(4-chlorobenzoyl)-2,3,4,9-tetrahydro-1H-pyrido[3,4-b] indole-1-carboxylate] gave a melting point of 232.3 to 233.5 °C. For the same compound, the IC50 with A549 is 27.3 ± 2.4 µM. The IC50 in the data set with HeLa was determined as 24.9 ± 3.44 µM. Also, the IC50 with HepG2 is 41.4 ± 1.69 µM. Further, the IC50 at 48 h in data set [1] came out at 200 ± 9.97 µM. At CDK4/CycD3, the IC50 is 30.4 µM.
Compound `CCOC(=O)C1c2[nH]c3ccccc3c2CCN1C(=O)c1ccc(-c2ccccc2)cc1` (stereo not drawn) [Compound 7c, Ethyl 2-([1, 1’-biphenyl]-4-carbonyl)-2,3,4,9-tetrahydro-1H-pyrido [3,4-b] indole-1 carboxylate] showed a melting point of 201.4 to 201.8 °C. Moreover, the IC50 in the data set on A549 came out at 10.5 ± 1.5 µM. Besides, the IC50 with HeLa worked out at 4.71 ± 0.7 µM. Besides, the IC50 in the data set on HepG2 was 10.8 ± 1.49 µM. Also, in data set [1], the half-inhibitory concentration (IC50) at 48 h was 281 ± 7.81 µM. Further, at CDK4/CycD3, the IC50 came out at 4.89 µM.
